Source: paper PMC10747602, “Dose Response, Dosimetric, and Metabolic Evaluations of Replacement PFAS Perfluoro-(2,5,8-trimethyl-3,6,9-trioxadodecanoic) Acid (HFPO-TeA)” (Toxics, 2023)
Several values for one entry are separate records, joined by “and”; a condition that tells them apart may be missing. Equal values may be shown once. Read-outs that look alike come from different tables or passages of the source.

Legend:
[1] = Ultracentrifugation plasma protein binding assay, rat plasma; assay type: in vitro ADME; details: both sexes, Sprague Dawley, rat
Description: (§1) Information on the chemicals and materials used in the plasma protein binding work can be found in Supplementary Text S10 and Table S3. Human and rodent plasma were evaluated for plasma protein binding using ultracentrifugation, as previously described. Working solutions of 3 mM of HFPO-DA, HFPO-TA, and HFPO-TeA were prepared separately in ethanol, with each working solution containing 3 mM of testosterone (Sigma-Aldrich; ≥98% pure) as a reference compound for assay performance. An aliquot of each stock solution (13.3 µL) was added to separate 15 mL tubes with 3.987 mL of plasma for a final assay concentration of 10 µM. The plasma solutions were incubated at 37 °C and 125 rpm for 60 min. One-hour stability samples (T60 min) were drawn in triplicate and diluted in four volumes of plasma ultrafiltrate. Aliquots (1 mL) from each plasma solution were drawn in triplicate and transferred to polycarbonate tubing. These samples underwent ultracentrifugation (Beckman OptimaMax; Beckman Coulter Inc., Brea, CA, USA) at 850,000× g for 4 h at 37 °C.
(§2) The remaining plasma solutions were returned for incubation at 37 °C and 125 rpm for an additional 4 h. Five-hour stability samples (T300 min) were then drawn in triplicate and diluted in four volumes of plasma ultrafiltrate. After ultracentrifugation, the aqueous fraction (AF) was collected by transferring the supernatant to a new tube and diluting in an equal volume of plasma for matrix matching. All samples were combined with 3 volumes of ice-cold ACN containing 16 ng/mL of ^13C3-HFPO-DA and 16 ng/mL of ^13C-Testosterone (Cambridge Isotope Laboratories; 98% pure). Samples were vigorously mixed, stored for 10 min at −20 °C, and then centrifuged at 12,000× g for 10 min at 4 °C. Supernatants were collected then stored at −70 °C prior to analysis.
(§3) Fraction unbound (fu) in plasma (fup) and percent stability calculations are detailed in Supplementary Text S10. Hepatic clearance, the fu in blood (fub) (fu in plasma adjusted for blood:plasma partitioning), and renal clearance were used to derive the steady-state concentration (Css) of each compound that will be used for in vitro–in vivo extrapolation (IVIVE). Renal clearance was calculated using the glomerular filtration rate (a species-dependent constant) and the fub. The Css calculation is detailed in Supplementary Text S11.
(§4) The gradient is available in Table S11. […]
(§5) Chemical stability in plasma was assessed
(§6) (F) Percent Stability = T300minutesT60minutes∗100

[2] = tested on: Sprague Dawley rodent plasma; assay: as above; assay type: in vitro ADME; details: rat plasma, 10000 nM
Description: as §1, §2, §3, §4, §5, §6

human hepatocytes = assay: Hepatocyte metabolic stability (clearance) assay, human hepatocytes; details: for Negative Control Data, No cells (NC), Ln Concentration / Negative Control Data, Heat Treated (HT), Ln Concentration / Ln Concentration / Linear Regression Best-Fit Slope (ln concentration vs time): 1000 nM; for Negative Control Data, No cells (NC), Ln Concentration / Negative Control Data, Heat Treated (HT), Ln Concentration / Ln Concentration: Rep 1-3; for Clin vitro / Negative Control Data, Heat Treated (HT), Ln Concentration / Ln Concentration / Linear Regression Best-Fit Slope (ln concentration vs time): human hepatocytes; for Clin vitro: 1 µM; for Linear Regression Best-Fit Slope (ln concentration vs time): time in min
Description: Information on the chemicals and materials used in the hepatocyte metabolic work can be found in Supplementary Text S9 and Table S3. In vitro evaluations of hepatocyte metabolic stability were performed in human and rat hepatocytes, as previously described. Briefly, pooled, cryopreserved hepatocyte suspensions were thawed, assessed for viability, and then diluted in William’s medium E containing dexamethasone and cell maintenance cocktail B to achieve a cell density of 50,000 cells/100 µL. The assay was started by adding hepatocyte suspensions to wells of 96-well polypropylene plates containing an equal volume of media with 2 µM of analyte (final assay concentration: 1 µM). Plates were placed in a 37 °C cell culture incubator (5% CO2) on a shaker set to 200 rpm. Time points assessed were T0, T15, T30, T60, T120, and T240 min. At each time point, the plates were removed from the shaker and the incubates were crashed with an equal volume of ice-cold ACN containing 1.2% FA and 16 ng/mL of ^13C3 -HFPO-DA. After chilling and centrifugation at 4122× g, the supernatants were transferred to new collection plates and stored at −70 °C until analysis for the parent compound on the Waters instrumentation described below. Immediately prior to analysis, samples were thawed, vortexed, and centrifuged at 4200× g, and then diluted 1:4 in 95:5 H2O/ACN with 2.5 mM of ammonium acetate. Negative controls, including no cell controls and metabolically inactivated hepatocytes, were run concurrently to assess the chemical stability over the time course.
Intrinsic clearance (Clint; hepatic clearance) calculations are detailed in Supplementary Text S9 [57].
Targeted, quantitative analysis of in vitro hepatocyte metabolic stability and plasma protein binding assay samples was conducted on a Waters Xevo-TQS micro mass spectrometer (Waters, Milford, MA, USA) ultra-high-performance liquid chromatography tandem mass spectrometry system (UPLC-MS/MS), modified with a PFAS analysis kit. Samples were analyzed in negative ion mode with UniSpray ionization. A CORTECS T3 column (Waters CORTECS, 3 × 100 mm, particle size 2.7 µm) was used for chromatographic separation with a flow rate of 0.6 mL/min and a temperature of 55 °C. Gradient elution was used with eluent A (95:5 H2O/ACN) and eluent B (95:5 ACN/H2O) with 2.5 mM of ammonium acetate. The gradient is available in Table S11. Additional details for MS parameters are found in Table S12 and monitored transitions are found in Table S13.
Table S2: Data processing parameters used with Sciex MarkerView 1.3.1.
Support ing Text S9: Hepatocyte Metabolic Stability Assay Materials, Chemicals, and Calculations
Pooled human and rat cryopreserved primary hepatocyte suspensions were both obtained from
BioIVT, a US Food and Drug Administration-licensed and inspected donor center, and produced using
non-transplantable tissue.
William’s E media, dexamet hasone (98% pure), and cell maintenance cocktail B were obtained from
Thermo Fisher Scientific (Waltham, MA, USA), the OptiThaw hepatocyte kit from Sekisui/Xenotech
(Tokyo, Japan), and the trypan blue s (Sekisui/ Xenotech, Tokyo, Japan) and the trypan blue solution from […]

[3] = plasma, Rat plasma, 10 µM, ultracentrifugation, read-out: Experimental fup (average fraction unbound in plasma)
[4] = rat plasma, 10000 nM, Rep A, read-out: Fraction Unbound in plasma (fup), Rep A
[5] = rat plasma, 10000 nM, Rep C, read-out: Fraction Unbound in plasma (fup), Rep C
[6] = rat plasma, 10000 nM, Rep B, read-out: Fraction Unbound in plasma (fup), Rep B

SMILES | fraction unbound at 4 h, 10 µM [1, 3] | fraction unbound at 4 h, 10 µM [1, 4] | fraction unbound at 4 h, 10 µM [1, 5] | Average Stability (T5hr/ T1hr) [2] | Aqueous Fraction, Rep A [2] | Stability (T5hr/ T1hr), Rep A [2] | Time 1 hr concentration, Rep A [2] | Time 5 hr concentration, Rep A [2] | Aqueous Fraction, Rep B [2] | Time 1 hr concentration, Rep B [2] | Aqueous Fraction, Rep C [2] | Stability (T5hr/ T1hr), Rep C [2] | Time 1 hr concentration, Rep C [2] | Time 5 hr concentration, Rep C [2] | Negative Control Data, No cells (NC), Ln Concentration (human hepatocytes; 15 min) | Negative Control Data, No cells (NC), Ln Concentration (human hepatocytes; 240 min) | Clin vitro (human hepatocytes) | Negative Control Data, Heat Treated (HT), Ln Concentration (human hepatocytes; 15 min) | Negative Control Data, Heat Treated (HT), Ln Concentration (human hepatocytes; 240 min) | Ln Concentration (human hepatocytes; time 0 min) | further results
O=C(O)C(F)(OC(F)(F)C(F)(F)C(F)(F)F)C(F)(F)F (stereo not drawn) [HFPO-DA, perfluoro-2-methyl-3-oxahexanoic acid] | 0.0307 | 0.0304 | 0.031 | 1.0909 | 265.60 nM | 1.0510 | 8.312 µM | 8.736 µM | 230.40 nM | 7.672 µM | 240 nM | 1.1308 | 6.848 µM | 7.744 µM | 4.4067 and 4.8800 and 5.2467 | 4.0348 and 4.0907 and 4.1657 | 0 µL/min/106 cells | 4.4067 and 4.8800 and 5.2467 | 4.6325 and 4.7203 and 4.8737 | 4.0945 and 4.2370 and 4.1735 | Ln Concentration (human hepatocytes; time 15 min): 4.1372 and 3.3218 and 3.8504; Ln Concentration (human hepatocytes; time 30 min): 4.2468 and 4.1368 and 4.2711; Ln Concentration (human hepatocytes; time 60 min): 4.1233 and 4.2750 and 4.2651; Ln Concentration (human hepatocytes; time 120 min): 4.3345 and 4.3751 and 4.3328; Ln Concentration (human hepatocytes; time 240 min): 4.9658 and 4.7177 and 4.8428; Linear Regression Best-Fit Slope (ln concentration vs time) (human hepatocytes): 0.0006364
O=C(O)C(F)(OC(F)(F)C(F)(OC(F)(F)C(F)(F)C(F)(F)F)C(F)(F)F)C(F)(F)F (stereo not drawn) [HFPO-TA, perfluoro-(2,5-dimethyl-3,6-dioxanonanoic) acid] | 0.0018 | 0.00165 | 0.00223 | 1.0261 | 16.00 nM | 0.9209 | 10.52 µM | 9.688 µM | 16.00 nM | 8.76 µM | 22.40 nM | 0.9866 | 10.184 µM | 10.048 µM | 4.3597 and 5.0085 and 5.1884 | 3.9371 and 3.9316 and 3.8367 | 0 µL/min/106 cells | 4.3597 and 5.0085 and 5.1884 | 4.9004 and 4.9391 and 4.9107 | 3.4977 and 3.5184 and 3.3762 | fraction unbound at 4 h, 10 µM [1, 6]: 0.00156; Stability (T5hr/ T1hr), Rep B [2]: 1.1708; Time 5 hr concentration, Rep B [2]: 10.256 µM; Ln Concentration (human hepatocytes; time 15 min): 4.0516 and 4.0675 and 3.8232; Ln Concentration (human hepatocytes; time 30 min): 3.7647 and 3.6457 and 3.2925; Ln Concentration (human hepatocytes; time 60 min): 4.1190 and 4.0115 and 3.2249; Ln Concentration (human hepatocytes; time 120 min): 4.2452 and 3.9281 and 3.6055; Ln Concentration (human hepatocytes; time 240 min): 4.5149 and 4.7648 and 4.7557; Linear Regression Best-Fit Slope (ln concentration vs time) (human hepatocytes): 0.000858
O=C(O)C(F)(OC(F)(F)C(F)(OC(F)(F)C(F)(OC(F)(F)C(F)(F)C(F)(F)F)C(F)(F)F)C(F)(F)F)C(F)(F)F (stereo not drawn) [HFPO-TeA, perfluoro-(2,5,8-trimethyl-3,6,9-trioxadodecanoic) acid] | 0.0059 | 0.00493 | 0.00748 | 1.1996 | 38.40 nM | 0.9294 | 8.384 µM | 7.792 µM | 35.20 nM | 6.528 µM | 48.00 nM | 1.6301 | 3.936 µM | 6.416 µM | 3.2431 and 3.8547 and 4.8392 | 4.3983 and 4.1513 and 4.1952 | 0 µL/min/106 cells | 3.2431 and 3.8547 and 4.8392 | 3.9071 and 4.4271 and 4.0870 | 4.4318 and 4.5113 and 4.4280 | fraction unbound at 4 h, 10 µM [1, 6]: 0.00519; Stability (T5hr/ T1hr), Rep B [2]: 1.0392; Time 5 hr concentration, Rep B [2]: 6.784 µM; Ln Concentration (human hepatocytes; time 15 min): 4.5753 and 4.4697 and 3.8582; Ln Concentration (human hepatocytes; time 30 min): 3.6875 and 3.5788 and 3.6553; Ln Concentration (human hepatocytes; time 60 min): 3.0465 and 3.5032 and 3.8121; Ln Concentration (human hepatocytes; time 120 min): 4.2197 and 4.3067 and 4.1488; Ln Concentration (human hepatocytes; time 240 min): 3.9567 and 3.8156 and 4.0422; Linear Regression Best-Fit Slope (ln concentration vs time) (human hepatocytes): 0.001224
